In patent US8206764B2, “Black soybean hull extract, method for obtaining, and use thereof” (Beijing Gingko-Group Biological Technology Co., Ltd., priority 2006, dated 2012):

Assay: clearance of hydroxyl free radicals, orthophenanthroline Fe2+ oxidation method
Format: biochemical
Design: Clearance rate of •OH (d): unit not given here
Settings: for Clearance rate of •OH (d): n = 5
From the text: Materials and methods-test drug and reagent: Extract of black soybean hull A (containing cyanidin 12.52%, catechin 13.50%, and OPC 54.01%). Orthophenanthroline, hydrogen peroxide, ascorbic acid (VC), and FeSO4.7H2O were all analytical pure reagents made in China. Materials and Methods-instruments: An LSY constant temperature water bath was obtained from a Beijing medical instrument manufacturer, and a UV-2000 spectrophotometer was from […], Shanghai Instrument Co., Ltd.). Test method-reagent preparation: Reagents included 0.1% H2O[…]), a 5 mmol/L anhydrous ethanol solution of orthophenanthroline, 0.75 mmol/L FeSO4, a 0.2 mmol/L phosphoric acid buffer solution (PBS; pH=7.4), BSHE A, prepared with double distilled water and diluted to concentrations of 0.5, 0.25, 0.125, and 0.0625 mg/ml, and ascorbic acid, prepared at concentrations of 4, 2, 1, and 0.5 mg/ml with double distilled water. Test method-measuring hydroxyl free radicals: The clearing of hydroxyl free radicals was tested using an orthophenanthrolin Fe^2+ oxidation method to further evaluate the anti-oxidation capacity of BSHE A. (1) 2 ml PBS, the test drug at the concentrations listed above, and 1 ml ascorbic acid were sequentially added to a disposable 10 ml polyethylene test tube and shaken. 0.35 ml of 5 mmol/L orthophenanthroline solution and 1 ml 0.75 mmol/L FeSO4 were added and mixed fully. 1 ml of 0.1% H2O2 was added, and the tube was vibrated for 1 minute. […] (2) The 1 ml of test drug in (1) was replaced with 1 ml deionized water, while the other conditions were the same as in (1). The absorbency value Ab was measured. (3) The 1 ml H2O2 in (2) was replaced with 1 ml deionized water, while the other conditions were the same as in (2). The absorbency value Ac was measured. (4) The clearance rate (d) of .OH by the test drug and the positive comparison was calculated according to the following equation: [formula] The total volume of reaction was 5.35 ml. The final concentrations of ascorbic acid thus were 0.748 mg/ml, 0.374 mg/ml, 0.187 mg/ml, and 0.093 mg/ml, while the final concentrations of BSHE A were 0.093 mg/ml, 0.047 mg/ml, 0.023 mg/ml, and 0.012 mg/ml. Five samples were tested in each group. The clearance rate of .OH was calculated individually and then average values were calculated.

IC50 of hydroxyl free radical clearance (from fitted line): 401.4 µg/mL
SMILES: O=C1O[C@H]([C@@H](O)CO)C(O)=C1O [ascorbic acid]
Clearance rate of •OH (d) (final concentration 0.093 mg/ml): 0.212 ± 2.47
Clearance rate of •OH (d) (final concentration 0.187 mg/ml): 4.21 ± 1.32
Clearance rate of •OH (d) (final concentration 0.374 mg/ml): 50.32 ± 4.29
Clearance rate of •OH (d) (final concentration 0.748 mg/ml): 91.29 ± 3.26
